Experiments:
[1] = target: human PI3K isoform beta (p110 beta) (Homo sapiens, UniProt P42338); assay: p110 isoform selectivity scintillation proximity assay (beta); type: biochemical; conditions: ratio of IC50 values, SPA, purified human PI3K isoforms
Procedure: (§1) Binding of compounds of the invention from above Tables 1a and 1b to purified preparations of p110 isoforms alpha, beta, delta, and gamma was measured by a Scintillation Proximity Assay (SPA) to determine binding activity (IC50 μMol) and selectivity of binding of beta, delta, and gamma isoforms relative to alpha (Example 8). These values are expressed in Table 2.
(§2) The ability of representative compounds from Tables 1a and 1b to inhibit the lipid kinase activity of purified preparations of human PI3K isoforms alpha, beta, delta, and gamma was determined by a radiometric scintillation proximity assay (SPA, GE Healthcare, Amersham Biosciences). Concentration dependent inhibition at 50% (IC50 μMol) was determined for all four isoforms […] and fold potency over beta, delta, and gamma relative to alpha was calculated for a selection of compounds in Table 2. Each compound has a p110 alpha IC50<1 μMol.

[2] = target: human PI3K isoform delta (p110 delta) (Homo sapiens, UniProt O00329); assay: p110 isoform selectivity scintillation proximity assay (delta); type: biochemical; conditions: ratio of IC50 values, SPA, purified human PI3K isoforms
Procedure: as §1, §2

[3] = target: human PI3K isoform gamma (p110 gamma) (Homo sapiens, UniProt P48736); assay: p110 isoform selectivity scintillation proximity assay (gamma); type: biochemical; conditions: ratio of IC50 values, SPA, purified human PI3K isoforms
Procedure: as §1, §2

Caco-2 cells = assay: Caco-2 permeability; type: in vitro ADME; conditions: bidirectional Caco-2 assay
Procedure: Caco-2 cells were seeded onto Millipore Multiscreen plates at 1×10^5 cells/cm^2, and were cultured for 20 days. Assessment of compound permeability was subsequently conducted. The compounds were applied to the apical surface (A) of cell monolayers and compound permeation into the basolateral (B) compartment was measured. This was performed in the reverse direction (B−A) to investigate active transport. A permeability coefficient value, Papp, for each compound, a measure of the rate of permeation of the compound across the membrane, was calculated. Compounds were grouped into low (Papp</=[…]) or high (Papp>/=[…]) absorption potential based on comparison with control compounds with established human absorption.
For assessment of a compound's ability to undergo active efflux, the ratio of basolateral (B) to apical (A) transport compared with A to B was determined. Values of B−A/A−B>/=1.0 indicated the occurrence of active cellular efflux. All of the compounds tested through the Caco-2 permeability screen had Papp values >/=[…].

Sequence of human PI3K isoform beta (p110 beta) (P42338 whole entry, canonical isoform): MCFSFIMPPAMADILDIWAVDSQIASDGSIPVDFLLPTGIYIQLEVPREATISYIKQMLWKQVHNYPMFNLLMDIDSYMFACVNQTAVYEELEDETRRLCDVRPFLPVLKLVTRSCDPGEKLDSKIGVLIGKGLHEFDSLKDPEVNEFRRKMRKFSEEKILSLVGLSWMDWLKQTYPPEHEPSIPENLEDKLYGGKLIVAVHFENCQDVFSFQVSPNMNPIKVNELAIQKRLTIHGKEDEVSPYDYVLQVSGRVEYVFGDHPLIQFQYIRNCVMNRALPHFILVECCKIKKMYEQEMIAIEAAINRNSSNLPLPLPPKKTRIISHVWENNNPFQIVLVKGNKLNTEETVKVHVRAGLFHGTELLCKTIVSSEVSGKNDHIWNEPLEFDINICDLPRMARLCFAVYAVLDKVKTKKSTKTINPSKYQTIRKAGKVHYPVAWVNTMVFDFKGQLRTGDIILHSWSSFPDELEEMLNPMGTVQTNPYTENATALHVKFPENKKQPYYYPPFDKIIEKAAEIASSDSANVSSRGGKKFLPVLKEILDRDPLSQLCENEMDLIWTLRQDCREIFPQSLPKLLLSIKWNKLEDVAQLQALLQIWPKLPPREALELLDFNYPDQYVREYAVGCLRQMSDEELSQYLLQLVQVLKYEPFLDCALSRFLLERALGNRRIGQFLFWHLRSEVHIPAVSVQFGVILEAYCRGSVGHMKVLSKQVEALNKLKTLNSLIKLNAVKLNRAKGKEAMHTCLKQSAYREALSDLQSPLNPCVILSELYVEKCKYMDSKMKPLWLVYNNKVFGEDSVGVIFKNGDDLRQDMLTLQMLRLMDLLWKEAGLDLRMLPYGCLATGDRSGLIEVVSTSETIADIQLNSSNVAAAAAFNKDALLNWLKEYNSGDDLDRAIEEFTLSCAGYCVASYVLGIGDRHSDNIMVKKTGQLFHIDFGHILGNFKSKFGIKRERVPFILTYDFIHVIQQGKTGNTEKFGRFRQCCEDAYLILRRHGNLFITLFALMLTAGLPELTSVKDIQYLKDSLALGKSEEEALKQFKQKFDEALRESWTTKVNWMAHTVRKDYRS
Sequence of human PI3K isoform beta (p110 beta) (P27986 whole entry partner, canonical isoform): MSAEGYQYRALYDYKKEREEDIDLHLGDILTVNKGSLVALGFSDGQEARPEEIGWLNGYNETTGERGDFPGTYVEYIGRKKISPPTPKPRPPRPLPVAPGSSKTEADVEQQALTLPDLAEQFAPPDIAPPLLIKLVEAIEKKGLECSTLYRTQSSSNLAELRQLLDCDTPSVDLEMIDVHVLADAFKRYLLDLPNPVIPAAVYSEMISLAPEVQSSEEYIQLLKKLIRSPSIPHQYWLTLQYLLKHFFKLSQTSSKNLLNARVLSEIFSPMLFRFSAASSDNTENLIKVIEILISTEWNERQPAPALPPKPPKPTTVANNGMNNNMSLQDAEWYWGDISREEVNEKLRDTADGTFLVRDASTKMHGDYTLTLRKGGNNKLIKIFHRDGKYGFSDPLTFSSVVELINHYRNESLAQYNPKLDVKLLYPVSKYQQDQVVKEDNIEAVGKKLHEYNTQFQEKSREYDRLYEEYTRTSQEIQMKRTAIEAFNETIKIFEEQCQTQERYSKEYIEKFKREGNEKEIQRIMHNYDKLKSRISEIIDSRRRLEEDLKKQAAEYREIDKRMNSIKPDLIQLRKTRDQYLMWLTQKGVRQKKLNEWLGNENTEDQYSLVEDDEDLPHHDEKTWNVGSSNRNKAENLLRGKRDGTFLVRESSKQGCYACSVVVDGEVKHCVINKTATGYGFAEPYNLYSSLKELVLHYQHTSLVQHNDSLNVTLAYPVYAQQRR
Sequence of human PI3K isoform gamma (p110 gamma) (P48736 whole entry, canonical isoform): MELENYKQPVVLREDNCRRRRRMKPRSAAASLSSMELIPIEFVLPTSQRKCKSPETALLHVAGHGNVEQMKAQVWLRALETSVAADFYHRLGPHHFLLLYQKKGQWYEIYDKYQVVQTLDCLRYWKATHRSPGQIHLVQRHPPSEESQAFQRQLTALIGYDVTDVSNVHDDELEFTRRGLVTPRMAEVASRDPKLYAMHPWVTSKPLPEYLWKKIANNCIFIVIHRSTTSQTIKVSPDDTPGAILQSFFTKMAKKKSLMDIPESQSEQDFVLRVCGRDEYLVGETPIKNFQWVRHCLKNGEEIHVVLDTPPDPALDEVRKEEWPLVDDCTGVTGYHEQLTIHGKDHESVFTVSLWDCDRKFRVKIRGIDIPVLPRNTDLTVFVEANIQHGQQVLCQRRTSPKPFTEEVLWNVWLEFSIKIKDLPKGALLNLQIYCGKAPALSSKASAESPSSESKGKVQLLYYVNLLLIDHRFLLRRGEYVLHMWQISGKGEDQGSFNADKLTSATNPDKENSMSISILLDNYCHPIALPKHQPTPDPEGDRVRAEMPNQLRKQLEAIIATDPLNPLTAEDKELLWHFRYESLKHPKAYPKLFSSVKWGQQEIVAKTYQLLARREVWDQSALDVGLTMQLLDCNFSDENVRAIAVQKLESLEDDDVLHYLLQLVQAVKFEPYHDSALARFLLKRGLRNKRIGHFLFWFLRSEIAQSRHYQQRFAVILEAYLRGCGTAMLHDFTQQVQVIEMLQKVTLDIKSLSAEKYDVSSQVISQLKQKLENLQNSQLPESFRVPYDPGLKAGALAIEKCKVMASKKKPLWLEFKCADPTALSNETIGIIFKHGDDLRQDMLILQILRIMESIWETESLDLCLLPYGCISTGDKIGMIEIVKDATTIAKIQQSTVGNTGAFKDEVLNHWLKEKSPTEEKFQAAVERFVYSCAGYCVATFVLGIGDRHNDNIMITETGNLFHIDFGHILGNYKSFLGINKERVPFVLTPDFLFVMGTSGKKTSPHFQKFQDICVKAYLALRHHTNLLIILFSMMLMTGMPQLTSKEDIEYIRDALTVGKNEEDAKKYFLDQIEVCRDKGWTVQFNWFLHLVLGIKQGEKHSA
Sequence of human PI3K isoform delta (p110 delta) (O00329 whole entry, canonical isoform): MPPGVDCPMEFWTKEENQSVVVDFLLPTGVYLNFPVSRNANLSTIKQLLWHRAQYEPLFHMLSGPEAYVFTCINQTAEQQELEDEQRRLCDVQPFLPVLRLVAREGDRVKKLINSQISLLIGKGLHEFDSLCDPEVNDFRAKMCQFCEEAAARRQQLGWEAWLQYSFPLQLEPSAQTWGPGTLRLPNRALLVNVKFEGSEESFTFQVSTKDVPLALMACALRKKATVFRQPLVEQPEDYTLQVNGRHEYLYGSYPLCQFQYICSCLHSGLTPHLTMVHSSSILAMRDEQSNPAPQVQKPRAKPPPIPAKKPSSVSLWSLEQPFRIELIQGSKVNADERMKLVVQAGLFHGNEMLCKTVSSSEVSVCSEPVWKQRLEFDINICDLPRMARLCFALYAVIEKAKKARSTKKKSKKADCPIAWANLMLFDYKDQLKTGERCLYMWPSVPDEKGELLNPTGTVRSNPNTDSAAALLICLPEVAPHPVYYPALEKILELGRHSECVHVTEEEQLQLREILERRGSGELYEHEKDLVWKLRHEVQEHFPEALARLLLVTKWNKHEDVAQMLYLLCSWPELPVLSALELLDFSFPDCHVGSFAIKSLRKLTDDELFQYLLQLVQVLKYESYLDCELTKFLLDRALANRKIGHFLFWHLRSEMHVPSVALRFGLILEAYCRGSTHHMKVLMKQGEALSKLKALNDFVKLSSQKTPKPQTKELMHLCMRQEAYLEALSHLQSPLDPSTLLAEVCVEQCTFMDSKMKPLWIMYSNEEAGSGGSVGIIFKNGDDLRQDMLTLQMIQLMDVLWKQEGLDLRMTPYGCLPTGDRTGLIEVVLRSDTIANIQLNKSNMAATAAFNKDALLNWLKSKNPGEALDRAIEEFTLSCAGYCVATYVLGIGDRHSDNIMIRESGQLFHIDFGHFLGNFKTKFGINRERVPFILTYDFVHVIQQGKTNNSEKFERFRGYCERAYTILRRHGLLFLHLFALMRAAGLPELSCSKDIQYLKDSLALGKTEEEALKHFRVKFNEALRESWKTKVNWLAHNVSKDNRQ
Sequence of human PI3K isoform delta (p110 delta) (P27986 whole entry partner, canonical isoform): as the sequence (P27986 whole entry partner, canonical isoform) above

CS(=O)(=O)N1CCN(Cc2cc3c(N4CCOCC4)nc(-c4cnc5ccccc5c4)nc3s2)CC1 [Compound 95, 3-[6-(4-Methanesulfonyl-piperazin-1-ylmethyl)-4-morpholin-4-yl-thieno[2,3-d]pyrimidin-2-yl]-quinoline]
alpha/beta (fold potency over beta relative to alpha) [1]: >10 fold | alpha/delta (fold potency over delta relative to alpha) [2]: >10 fold | alpha/gamma (fold potency over gamma relative to alpha) [3]: >10 fold

CS(=O)(=O)N1CCN(Cc2cc3nc(-c4cnc5[nH]ccc5c4)nc(N4CCOCC4)c3s2)CC1 [Compound 133, 6-((4-methylsulfonylpiperazin-1-yl)methyl)-4-morpholino-2-(1H-pyrrolo[2,3-b]pyridin-5-yl)thieno[3,2-d]pyrimidine]
alpha/beta (fold potency over beta relative to alpha) [1]: >10 fold | alpha/delta (fold potency over delta relative to alpha) [2]: <10 fold | alpha/gamma (fold potency over gamma relative to alpha) [3]: >10 fold

CS(=O)(=O)N1CCN(Cc2cc3nc(-c4cccc5[nH]cnc45)nc(N4CCOCC4)c3s2)CC1 [Compound 139]
alpha/beta (fold potency over beta relative to alpha) [1]: <10 fold | alpha/delta (fold potency over delta relative to alpha) [2]: <10 fold | alpha/gamma (fold potency over gamma relative to alpha) [3]: <10 fold

CS(=O)(=O)N1CCN(Cc2cc3c(N4CCOCC4)nc(-c4cnc5[nH]ccc5c4)nc3s2)CC1 [Compound 140]
alpha/beta (fold potency over beta relative to alpha) [1]: >10 fold | alpha/delta (fold potency over delta relative to alpha) [2]: >10 fold | alpha/gamma (fold potency over gamma relative to alpha) [3]: >10 fold

CS(=O)(=O)N1CCN(Cc2cc3c(N4CCOCC4)nc(-c4cccc5[nH]ncc45)nc3o2)CC1 [Compound 141, 2-(1H-indazol-4-yl)-6-((4-methylsulfonylpiperazin-1-yl)methyl)-4-morpholinofuro[2,3-d]pyrimidine]
alpha/beta (fold potency over beta relative to alpha) [1]: <10 fold | alpha/delta (fold potency over delta relative to alpha) [2]: <10 fold | alpha/gamma (fold potency over gamma relative to alpha) [3]: >10 fold

CS(=O)(=O)N1CCN(Cc2cc3nc(-c4cnc5[nH]ccc5c4)nc(N4CCOCC4)c3o2)CC1 [Compound 142]
alpha/beta (fold potency over beta relative to alpha) [1]: >10 fold | alpha/delta (fold potency over delta relative to alpha) [2]: <10 fold | alpha/gamma (fold potency over gamma relative to alpha) [3]: >10 fold

CS(=O)(=O)N1CCN(Cc2cc3nc(-c4cnc5[nH]cnc5c4)nc(N4CCOCC4)c3s2)CC1 [Compound 144]
alpha/beta (fold potency over beta relative to alpha) [1]: <10 fold | alpha/delta (fold potency over delta relative to alpha) [2]: <10 fold | alpha/gamma (fold potency over gamma relative to alpha) [3]: >10 fold

CS(=O)(=O)N1CCN(Cc2cc3c(N4CCOCC4)nc(-c4cnc5[nH]cnc5c4)nc3s2)CC1 [Compound 147]
alpha/beta (fold potency over beta relative to alpha) [1]: >10 fold | alpha/delta (fold potency over delta relative to alpha) [2]: >10 fold | alpha/gamma (fold potency over gamma relative to alpha) [3]: >10 fold

Cc1nc2cc(-c3nc(N4CCOCC4)c4sc(CN5CCN(S(C)(=O)=O)CC5)cc4n3)ccc2[nH]1 [Compound 157, 6-(4-Methanesulfonyl-piperazin-1-ylmethyl)-2-(2-methyl-1H-benzoimidazol-5-yl)-4-morpholin-4-yl-thieno[3,2-d]pyrimidine]
alpha/beta (fold potency over beta relative to alpha) [1]: >10 fold | alpha/delta (fold potency over delta relative to alpha) [2]: <10 fold | alpha/gamma (fold potency over gamma relative to alpha) [3]: >10 fold

CN1CCN(Cc2cc3nc(-c4cccc(O)c4)nc(N4CCOCC4)c3s2)CC1 [PI540]
B−A/A−B asymmetry index (Caco-2 cells): less than 1.0

Source: patent publication US9943519B2, “Pharmaceutical compounds” (F.HOFFMANN-LA ROCHE AG, priority 2006, dated 2018)
